Blank lines part the entries; values can stand above or below the compound they belong to.
Legend:
[1] = test system: human erythrocyte membranes; assay: Inhibition of lipoperoxidation in erythrocyte membranes; type: biochemical
[2] = Cytotoxicity, neutral red uptake assay, MRC-5; type: cell-based; conditions: human, MRC-5 lung fibroblasts, confluent monolayer, confluent MRC-5, 24 h, read-out: IC50 ± SD, cytotoxicity MRC-5
Protocol: (§1) Human lung fibroblasts MRC-5 (ATCC CCL-171) were grown in minimum essential Eagle medium (MEM) with Earles’s salts and 2 mM L-glutamine (Sigma-Aldrich Co.). Human epithelial gastric cells AGS (ATCC CRL-1739) were grown in Ham F-12 medium containing 1 mM L-glutamine. Both media were supplemented with 1.5 g/L sodium bicarbonate (Sigma-Aldrich Co.), 10% heat-inactivated fetal bovine serum (FBS), 100 IU/mL penicillin and 100 µg/mL streptomycin.Both cell lines were grown as monolayers in a humidified incubator with 5% CO2 in air at 37 °C. Culture media, antibiotics and FBS were obtained from Invitrogen Corp.
(§2) Cytotoxicity values were required as a reference to determine the working concentrations in the subsequent experiments. Briefly, confluent cultures of MRC-5 and AGS cells were treated during 24 h with medium containing the compounds at concentrations ranging from 0 up to 1,000 µM. The products were first dissolved in DMSO (1% final concentration) and then in the corresponding culture medium supplemented with 2% FBS. Untreated cells were used as controls. Cell viability was determined at the end of the incubation by means of the neutral red uptake (NRU) assay. Lansoprazole (Sigma-Aldrich Co., min. 98% by TLC) was used as reference compound.

[3] = test system: AGS cells; assay: Cellular reduced glutathione (GSH) content of AGS cells; type: cell-based, human; conditions: 4 h; for GSH: post-confluent AGS, control 13.6 ± 0.7
Protocol: Untreated cells were used as controls. […] After incubation, the GSH content was determined using a colorimetric kit (BioAssays Systems, Hayward, CA, USA). Results are expressed as nanomol of soluble reduced sulfhydryls/10^6 cells.

[4] = test system: human erythrocyte membranes; assay: Inhibition of lipoperoxidation in erythrocyte membranes; type: biochemical; conditions: at 100 µg/mL
Protocol: The inhibition of lipid peroxidation was determined using human erythrocyte membranes. The compounds were tested at 100 µg/mL.

[5] = test system: AGS cells; assay: Prostaglandin E2 (PGE2) content of AGS cells; type: cell-based, human; conditions: 1 h; for PGE2: post-confluent AGS, control 52 ± 5
Protocol: One day after confluence, AGS cells were treated for 1 h with the compounds at 1/2 and 1/4 of the respective IC50 values. A control with medium only was included. Indomethacin (100 μM) was used as standard inhibitor of prostaglandin synthesis (Sigma-Aldrich Co., min. 99% by TLC). After incubation, PGE2 content was determined by means of a specific enzyme immunoassay kit (R & D Systems KGE004B, Minneapolis, MN, USA) and values were calculated according to the manufacturer instructions. Results are expressed as pg/well.

[6] = Cytotoxicity, neutral red uptake assay, AGS; type: cell-based; conditions: human, AGS gastric epithelial cells, confluent monolayer, read-out: IC50 ± SD, cytotoxicity AGS
Protocol: as §1, §2

[7] = test system: AGS cells; assay: Sodium taurocholate (NaT)-induced damage to AGS cells; type: cell-based, human; conditions: 60 min pre-treatment, then 10 mM NaT 30 min
Protocol: The effect of sodium taurocholate (NaT) on cell viability was determined according to [15]. […] Then, 10 mM NaT was added to all wells for 30 min. Untreated cells were used as controls. […] After incubation, the NRU assay was carried out.

IC50, inhibition of the lipoperoxidation [1]: IC50 75.4 ± 6.0 µg/mL
Compound: O.Oc1cc(O)c2c(c1)O[C@H](c1ccc(O)c(O)c1)[C@@H](O)C2 [Catechin, reference compound]

Compound: CC(C)=CCC1=C(O)C(=O)c2ccccc2C1=O [Compound 1, Lapachol]
IC50 at 24 h [2]: > 1000 µM | GSH ([3]; 72 µM): 13.9 ± 0.9 nmol/10^6 cells | GSH ([3]; 143 µM): 14.1 ± 0.8 nmol/10^6 cells | % Inhibition of the lipoperoxidation [4]: 38% | fold induction at 143 µM ([5]; Homo sapiens, AGS, 143 µM, read-out: increase in PGE2 content): 2.3 | fold induction at 286 µM ([5]; Homo sapiens, AGS, 286 µM, read-out: increase in PGE2 content): 2.5 | PGE2 ([5]; 143 µM): 117 ± 10 pg/mL | PGE2 ([5]; 286 µM): 132 ± 12 pg/mL | IC50 at 24 h [6]: 571 ± 28 µM

Compound: CC(C)CCC1=C(O)C(=O)c2ccccc2C1=O [Compound 2, Dihydroprenyl lapachol]
IC50 at 24 h [2]: 611 ± 42 µM | IC50, inhibition of the lipoperoxidation [1]: IC50 25.4 ± 2.4 µg/mL | reduction in cell viability, NaT-induced damage ([7]; 37 µM): 23% | reduction in cell viability, NaT-induced damage ([7]; 73 µM): 23% | reduction in cell viability, NaT-induced damage ([7]; 146 µM): 27% | GSH ([3]; 37 µM): 13.6 ± 0.7 nmol/10^6 cells | GSH ([3]; 73 µM): 13.8 ± 0.7 nmol/10^6 cells | IC50 at 24 h [6]: 292 ± 12 µM

IC50, inhibition of the lipoperoxidation [1]: IC50 33.3 ± 2.3 µg/mL
Compound: CC(C)CCC1=C(O)C(=O)C2=C(CCCC2)C1=O [Compound 3, Dihydroprenyl-5,6,7,8-tetrahydrolapachol]
IC50 at 24 h [2]: 307 ± 22 µM | GSH ([3]; 11 µM): 14.3 ± 0.7 nmol/10^6 cells | GSH ([3]; 22 µM): 13.0 ± 0.5 nmol/10^6 cells | IC50 at 24 h [6]: 87 ± 4 µM

Compound: C=C1CCC2[C@](C)(CCC[C@]2(C)C(=O)O)[C@H]1CC[C@@H](C)CC(=O)O (stereo partly shown) [Compound 4, Junicedric acid]
IC50 at 24 h [2]: 439 ± 26 µM | GSH ([3]; 48 µM): * 18.4 ± 1.1 nmol/10^6 cells | GSH ([3]; 96 µM): * 17.2 ± 1.0 nmol/10^6 cells | % Inhibition of the lipoperoxidation [4]: 25% | IC50 at 24 h [6]: 383 ± 23 µM

Compound: CC(CCC1C(C)CCC2C(C)(C(=O)O)CCCC12C)CC(=O)O (stereo not drawn) [Compound 6, 17β-Dihydrojunicedric acid]
IC50 at 24 h [2]: 163 ± 5 µM | activation at 37 µM ([3]; Homo sapiens, AGS, 37 µM, read-out: increase of GSH content compared to untreated controls): 43% | activation at 71 µM ([3]; Homo sapiens, AGS, 71 µM, read-out: increase of GSH content compared to untreated controls): 60% | GSH ([3]; 37 µM): * 19.5 ± 0.9 nmol/10^6 cells | GSH ([3]; 71 µM): ** 21.7 ± 1.3 nmol/10^6 cells | % Inhibition of the lipoperoxidation [4]: 30% | IC50 at 24 h [6]: 283 ± 17 µM

Compound: C=C1CCC2[C@](C)(CCC[C@]2(C)C(=O)O)[C@H]1CC[C@@H](C)CC(=O)OC1=C(CC=C(C)C)C(=O)c2ccccc2C1=O (stereo partly shown) [Compound 7, Lapachoyl junicedrate]
IC50 at 24 h [2]: 221 ± 13 µM | activation at 18 µM ([3]; Homo sapiens, AGS, 18 µM, read-out: increase of GSH content compared to untreated controls): 18% | activation at 36 µM ([3]; Homo sapiens, AGS, 36 µM, read-out: increase of GSH content compared to untreated controls): 23% | GSH ([3]; 18 µM): 16.1 ± 0.9 nmol/10^6 cells | GSH ([3]; 36 µM): * 16.7 ± 0.7 nmol/10^6 cells | % Inhibition of the lipoperoxidation [4]: 10% | IC50 at 24 h [6]: 143 ± 6 µM

Compound: C=C1CCC2[C@](C)(CCC[C@]2(C)C(=O)OC)[C@H]1CC[C@@H](C)CC(=O)OC1=C(CCC(C)C)C(=O)C2=C(CCCC2)C1=O (stereo partly shown) [Compound 12, Dihydroprenyl-5,6,7,8-tetrahydrolapachoyl junicedrate methyl ester]
IC50 at 24 h [2]: 667 ± 40 µM | GSH ([3]; 125 µM): 13.7 ± 1.0 nmol/10^6 cells | GSH ([3]; 250 µM): 13.9 ± 0.8 nmol/10^6 cells | % Inhibition of the lipoperoxidation [4]: 37% | IC50 at 24 h [6]: > 1000 µM

IC50, inhibition of the lipoperoxidation [1]: IC50 19.7 ± 1.4 µg/mL
Compound: COC(=O)[C@@]1(C)CCC[C@@]2(C)C1CC[C@H](C)[C@@H]2CC[C@@H](C)CC(=O)OC1=C(CC=C(C)C)C(=O)c2ccccc2C1=O (stereo partly drawn) [Compound 14, Lapachoyl 17β-dihydrojunicedrate methyl ester]
IC50 at 24 h [2]: 727 ± 48 µM | GSH ([3]; 115 µM): 14.4 ± 0.5 nmol/10^6 cells | GSH ([3]; 229 µM): 12.7 ± 0.4 nmol/10^6 cells | IC50 at 24 h [6]: 916 ± 54 µM

IC50, inhibition of the lipoperoxidation [1]: IC50 25.3 ± 4.1 µg/mL
Compound: CC(C)CCC1=C(OC(=O)C[C@H](C)CC[C@H]2[C@@H](C)CCC3[C@]2(C)CCC[C@]3(C)C(=O)O)C(=O)c2ccccc2C1=O (stereo partly drawn) [Compound 15, Dihydroprenyl lapachol 17β-dihydrojunicedrate]
IC50 at 24 h [2]: > 1000 µM | reduction in cell viability, NaT-induced damage ([7]; 125 µM): 27% | reduction in cell viability, NaT-induced damage ([7]; 250 µM): 27% | reduction in cell viability, NaT-induced damage ([7]; 500 µM): 21% | activation at 125 µM ([3]; Homo sapiens, AGS, 125 µM, read-out: increase of GSH content compared to untreated controls): 31% | activation at 250 µM ([3]; Homo sapiens, AGS, 250 µM, read-out: increase of GSH content compared to untreated controls): 35% | GSH ([3]; 125 µM): * 17.8 ± 0.9 nmol/10^6 cells | GSH ([3]; 250 µM): * 18.4 ± 1.2 nmol/10^6 cells | fold induction at 250 µM ([5]; Homo sapiens, AGS, 250 µM, read-out: increase in PGE2 content): 5.4 | fold induction at 500 µM ([5]; Homo sapiens, AGS, 500 µM, read-out: increase in PGE2 content): 7.2 | PGE2 ([5]; 250 µM): 279 ± 20 pg/mL | PGE2 ([5]; 500 µM): 372 ± 25 pg/mL | IC50 at 24 h [6]: > 1000 µM

Compound: CC(C)=CCC1=C(OC(=O)C[C@H](C)CC[C@H]2[C@@H](C)CCC3[C@]2(C)CCC[C@]3(C)C(=O)O)C(=O)C2=C(CCCC2)C1=O (stereo partly drawn) [Compound 17, Dihydroprenyl-5,6,7,8-tetrahydrolapachoyl 17β-dihydrojunicedrate]
IC50 at 24 h [2]: 44 ± 4 µM | activation at 7.5 µM ([3]; Homo sapiens, AGS, 7.5 µM, read-out: increase of GSH content compared to untreated controls): 89% | activation at 15 µM ([3]; Homo sapiens, AGS, 15 µM, read-out: increase of GSH content compared to untreated controls): 51% | GSH ([3]; 7.5 µM): ** 25.8 ± 1.6 nmol/10^6 cells | GSH ([3]; 15 µM): ** 20.5 ± 1.0 nmol/10^6 cells | % Inhibition of the lipoperoxidation [4]: 48% | IC50 at 24 h [6]: 60 ± 5 µM

Compound: COc1ccc2c(c1)c(CC(=O)O)c(C)n2C(=O)c1ccc(Cl)cc1 [Indomethacin, reference compound]
PGE2 ([5]; 100 µM): Not detected

Compound: Cc1c(OCC(F)(F)F)ccnc1C[S+]([O-])c1nc2ccccc2[nH]1 (stereo not shown) [Lansoprazole, reference compound]
IC50 at 24 h [2]: 316 ± 11 µM | IC50 at 24 h [6]: 168 ± 8 µM

Compound: CC(=O)N[C@@H](CS)C(=O)O [NAC, N-acetyl-L-cysteine, reference compound]
activation at 750 µM ([3]; Homo sapiens, AGS, 750 µM, read-out: increase of GSH content compared to untreated controls): 30% | GSH ([3]; 750 µM): * 17.7 ± 1.4 nmol/10^6 cells

Compound: Sucralfate [reference compound]
reduction in cell viability, NaT-induced damage ([7]; 4 mg/mL (580 µM)): 35%

— PMC6270338, “Diterpenylquinone Hybrids: Synthesis and Assessment of Gastroprotective Mechanisms of Action in Human Cells” (Molecules, 2013)
